Assay results published in US10473662B2, “Diagnostic and prognostic markers for cancer” (Wake Forest University Health Sciences, priority 2009, dated 2019).

Assays:
HME cells = test: Labile iron pool assay (calcein) in hepcidin-treated cells; type: cell-based, human; settings: 700 nM hepcidin or vehicle control (FIG. 3B)
Protocol: (§1) Human mammary epithelial (HME) cells were obtained from Lonza (Rockland, Me.). HME cells transduced with h-TERT, SV40 T antigen and high levels of H-ras are termed R5 cells in this report and were a generous gift from the laboratory of Dr. Robert Weinberg, Boston, Mass. (14). All cells were maintained at 37° C. in a humidified atmosphere containing 5% CO2. Cells were maintained in Dulbecco's […] (DMEM-F12) medium (Gibco/BRL [Grand Island, N.Y.]) supplemented with L-glutamine, 10 μg/ml insulin, 10 ng/ml human epidermal growth factor, and 0.5 μg/ml hydrocortisone for 24 hrs prior to harvest. MCF7 and MCF10A cell lines were obtained from the Wake Forest University Comprehensive Cancer Center Tissue Culture Core facility. SUM149 and SUM102 cell lines were a generous gift of Dr. I. Berquin, Wake Forest University School of Medicine. […]
The cellular labile iron pool (LIP) was measured with the fluorescent metallosensor calcein, essentially as described (20). […] Fluorescence was measured at 485 nm excitation and 535 nm emission with a fluorescence plate reader (fmax Fluorescence Microplate Reader, Molecular Devices). After the fluorescence signal was stabilized, SIH was added to remove iron from calcein, causing dequenching. The change in fluorescence following the addition of SIH (ΔF) was used as a measure of the labile iron pool.

ferritin H = test: Western blot of ferritin H in hepcidin-treated cells; type: cell-based, human; settings: HME cells, 300 nM or 700 nM hepcidin for 6 hours (FIG. 3C)
Protocol: as §1, with “facility.” for “facility. SUM149 and SUM102 cell lines were a generous gift of Dr. I. Berquin, Wake Forest University School of Medicine.”
(§2) Cells were washed once in phosphate-buffered saline (PBS) and scraped. […] Total protein concentrations were determined using BCA reagent (Pierce). […] Ferritin H was detected as previously described (49). Ferroportin was detected using anti-ferroportin-1 antibody (MTP-1, Alpha Diagnostics) followed by horseradish peroxidase conjugated goat anti-rabbit secondary antibody (Bio-Rad). […] Prohepcidin was detected using a rabbit polyclonal antibody (Hepcidin-25 antibody, ab75883, Abcam) followed by horseradish peroxidase conjugated goat anti-rabbit secondary antibody (Bio-Rad). […]

ferroportin = target: T1, ferroportin (Homo sapiens, UniProt Q9NP59); test: Western blot of ferroportin in hepcidin-treated cells; type: cell-based; settings: HME cells, 300 or 700 nM hepcidin for 6 hours (FIG. 3D)
T1 construct: endogenous in cells; host or cells: primary human mammary epithelial (HME) cells (Lonza)
T1 sequence (Q9NP59 1-571): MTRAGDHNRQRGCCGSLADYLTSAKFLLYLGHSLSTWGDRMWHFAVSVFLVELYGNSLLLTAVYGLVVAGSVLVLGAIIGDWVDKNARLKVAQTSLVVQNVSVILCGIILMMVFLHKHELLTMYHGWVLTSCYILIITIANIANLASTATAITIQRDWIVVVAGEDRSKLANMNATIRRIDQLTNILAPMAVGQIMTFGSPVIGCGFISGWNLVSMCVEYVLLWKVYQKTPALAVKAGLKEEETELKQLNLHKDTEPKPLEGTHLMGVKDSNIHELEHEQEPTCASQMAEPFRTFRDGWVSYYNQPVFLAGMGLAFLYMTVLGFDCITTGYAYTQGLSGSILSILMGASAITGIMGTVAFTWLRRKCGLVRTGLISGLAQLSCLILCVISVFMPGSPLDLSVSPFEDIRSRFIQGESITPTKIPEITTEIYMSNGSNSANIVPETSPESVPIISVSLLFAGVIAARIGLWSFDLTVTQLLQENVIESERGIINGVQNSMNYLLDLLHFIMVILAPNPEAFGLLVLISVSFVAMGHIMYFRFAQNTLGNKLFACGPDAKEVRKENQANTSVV
Protocol: as §1, with “facility.” for “facility. SUM149 and SUM102 cell lines were a generous gift of Dr. I. Berquin, Wake Forest University School of Medicine.”
as §2

ferroportin protein (Western blotting) (ferroportin): Ferroportin is degraded
Substance: Hepcidin: Peptide hormone that binds ferroportin and triggers its degradation; obtained from Peptides International, dissolved in water
labile iron pool (HME cells): increases the labile iron pool | levels of ferritin protein (ferritin H, Western blotting) (ferritin H): increases levels of ferritin protein
